Test results reported in patent US20110275703A1, “SUBSTITUTED SPIROKETAL DERIVATIVES AND USE THEREOF AS THERAPEUTIC DRUG FOR DIABETES” (CHUGAI SEIYAKU KABUSHIKI KAISHA, priority 2007, published 2011).
Where two headings read alike, the source gives them in different places.

Molecular target: T1, human SGLT2 (Homo sapiens, UniProt P31639)
T1 construct: expressed in transfected cells; host or cells: CHO-K1
T1 sequence (P31639 1-672): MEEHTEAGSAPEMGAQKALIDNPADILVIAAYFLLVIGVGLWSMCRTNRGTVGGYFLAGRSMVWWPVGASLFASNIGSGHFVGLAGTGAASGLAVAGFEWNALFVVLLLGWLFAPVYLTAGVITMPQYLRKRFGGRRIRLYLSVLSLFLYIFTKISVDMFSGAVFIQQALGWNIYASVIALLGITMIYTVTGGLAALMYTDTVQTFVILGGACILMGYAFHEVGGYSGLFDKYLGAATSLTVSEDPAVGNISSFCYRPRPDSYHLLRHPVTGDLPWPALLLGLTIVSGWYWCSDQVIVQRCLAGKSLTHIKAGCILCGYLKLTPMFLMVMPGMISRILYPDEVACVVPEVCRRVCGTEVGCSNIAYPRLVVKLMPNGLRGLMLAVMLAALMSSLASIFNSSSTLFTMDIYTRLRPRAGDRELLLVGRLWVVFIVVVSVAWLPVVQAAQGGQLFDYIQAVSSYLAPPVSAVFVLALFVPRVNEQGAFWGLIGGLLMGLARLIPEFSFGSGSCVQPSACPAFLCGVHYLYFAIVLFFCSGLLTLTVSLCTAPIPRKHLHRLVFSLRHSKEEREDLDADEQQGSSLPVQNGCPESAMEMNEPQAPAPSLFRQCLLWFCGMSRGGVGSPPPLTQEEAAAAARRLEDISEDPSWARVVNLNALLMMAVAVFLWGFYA
Experiment: Inhibitory activity against methyl-α-D-glucopyranoside uptake, CHO cells stably expressing human SGLT2
Type: cell-based
Conditions: for hSGLT2 selectivity: matches hSGLT1 IC50 / hSGLT2 IC50 (formula not stated)
In short: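 CHO-K1 cells stably expressing human SGLT2 were pre-incubated in sodium-free choline buffer (pH 7.4), then exposed 45 min at 37°C to test compound in sodium buffer containing 1 mM [14C]methyl-α-D-glucopyranoside. Sodium-free buffer gave baseline uptake. After washing, cells were lysed with NaOH/SDS.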

[1] = Table 2-2, read-out: hhSGLT2 IC50 value
[2] = inhibition of SGLT2, Table 2-1, read-out: IC50 value

Structure (SMILES)	IC50 [1] [nM]	hSGLT2 selectivity	IC50 [2] [nM]
CCOc1ccc(Cc2cc3c(cc2Cl)CO[C@]32O[C@H](CO)[C@@H](O)[C@H](O)[C@H]2O)cc1 [Example 5, (1S,3′R,4′S,5′S,6′R)-5-chloro-6-[(4-ethoxyphenyl)methyl]-3′,4′,5′,6′-tetrahydro-6′-(hydroxymethyl)-spiro[isobenzofuran-1(3H),2′-[2H]pyran]-3′,4′,5′-triol]	1.5	283	1.5
OC[C@H]1O[C@]2(OCc3cc(Cl)c(Cc4ccc5ccccc5c4)cc32)[C@H](O)[C@@H](O)[C@@H]1O [Example 7, (1S,3′R,4′S,5′S,6′R)-5-chloro-3′,4′,5′,6′-tetrahydro-6′-(hydroxymethyl)-6-(2-naphthylmethyl)-spiro[isobenzofuran-1(3H),2′-[2H]pyran]-3′,4′,5′-triol]	1.7	224	1.7
CC(C)c1ccc(Cc2cc3c(cc2Cl)CO[C@]32O[C@H](CO)[C@@H](O)[C@H](O)[C@H]2O)cc1 [Example 15, (1S,3′R,4′S,5′S,6′R)-5-chloro-3′,4′,5′,6′-tetrahydro-6′-(hydroxymethyl)-6-[(4-isopropylphenyl)methyl]-spiro[isobenzofuran-1(3H),2′-[2H]pyran]-3′,4′,5′-triol]	1.7	596	1.7

Other lines, results leading:

IC50 [1] [nM]	hSGLT2 selectivity	IC50 [2] [nM]	Structure (SMILES)
1.6	83		CCc1ccc(Cc2cc3c(cc2C)CO[C@]32O[C@H](CO)[C@@H](O)[C@H](O)[C@H]2O)cc1 [Comparative Compound 1, 1,1-anhydro-1-C-[5-(4-ethylphenyl)methyl-2-(hydroxymethyl)-4-methylphenyl]-β-glucopyranose, reference compound]
1.3	155	1.3	CCc1ccc(Cc2cc3c(cc2Cl)CO[C@]32O[C@H](CO)[C@@H](O)[C@H](O)[C@H]2O)cc1 [Example 1, (1S,3′R,4′S,5′S,6′R)-5-chloro-6-[(4-ethylphenyl)methyl]-3′,4′,5′,6′-tetrahydro-6′-(hydroxymethyl)-spiro[isobenzofuran-1(3H),2′-[2H]pyran]-3′,4′,5′-triol]
1.1	323	1.1	OC[C@H]1O[C@]2(OCc3cc(Cl)c(Cc4ccc(CCF)cc4)cc32)[C@H](O)[C@@H](O)[C@@H]1O [Example 8, (1S,3′R,4′S,5′S,6′R)-5-chloro-6-[(4-(2-fluoroethyl)phenyl)methyl]-3′,4′,5′,6′-tetrahydro-6′-(hydroxymethyl)-spiro[isobenzofuran-1(3H),2′-[2H]pyran]-3′,4′,5′-triol]
2.3	590	2.3	CCCc1ccc(Cc2cc3c(cc2Cl)CO[C@]32O[C@H](CO)[C@@H](O)[C@H](O)[C@H]2O)cc1 [Example 9, (1S,3′R,4′S,5′S,6′R)-5-chloro-3′,4′,5′,6′-tetrahydro-6′-(hydroxymethyl)-6-[(4-propylphenyl)methyl]-spiro[isobenzofuran-1(3H),2′-[2H]pyran]-3′,4′,5′-triol]
2	341	2.1	Cc1cc2c(cc1Cc1ccc(C(C)C)cc1)[C@]1(OC2)O[C@H](CO)[C@@H](O)[C@H](O)[C@H]1O [Example 21, (1S,3′R,4′S,5′S,6′R)-3′,4′,5′,6′-tetrahydro-6′-(hydroxymethyl)-6-[(4-isopropylphenyl)methyl]-5-methyl-spiro[isobenzofuran-1(3H),2′-[2H]pyran]-3′,4′,5′-triol]
